Tested on: Wnt signaling
Test: Wnt-Luc reporter assay for pathway inhibition of Wnt signaling
Format: cell-based, mouse (TM3 Wnt-Luc) or human (293 Wnt-Luc); not stated which
Conditions: Wnt-Luc reporter cells co-cultured with L-cell Wnt3a cells, 24 hours
Procedure: This example provides a method that is useful for evaluating test compounds for inhibition of Wnt signaling.
Mouse leydig cell TM3 cells (obtained from American Type Culture Collection, ATCC, Manassas, Va.) are cultured in 1:1 mixture of Ham's F12 medium and Dulbecco's modified Eagle's medium (Gibco/Invitrogen, Carlsbad, Calif.) supplemented with 2.5% FBS (Gibco/Invitrogen, Carlsbad, Calif.) and 5% horse serum (Gibco/Invitrogen, Carlsbad, Calif.), 50 unit/mL penicillin and 50 μg/mL of streptomycin (Gibco/Invitrogen, Carlsbad, Calif.) at 37° C. with 5% CO2 in air atmosphere. TM3 cells in a 10 cm dish are co-transfected with 8 μg of STF-reporter plasmid containing a luciferase gene driven by Wnt-responsive elements and 2 μg of pcDNA3.1-Neo (Gibco/Invitrogen, Carlsbad, Calif.) with 30 μL of FuGENE6 (Roche Diagnostics, Indianapolis, Ind.) following the manufacturer's protocol. Stable cell lines (TM3 Wnt-Luc) were selected with 400 μg/mL of G418 (Gibco/Invitrogen, Carlsbad, Calif.). The TM3 Wnt-Luc cells and L-cell Wnt3a cells (obtained from American Type Culture Collection, ATCC, Manassas, Va.; cultured in Dulbecco's modified Eagle's medium (Gibco/Invitrogen, Carlsbad, Calif.) supplemented with 10% FBS (Gibco/Invitrogen, Carlsbad, Calif.) and 50 unit/mL penicillin and 50 μg/mL of streptomycin (Gibco/Invitrogen, Carlsbad, Calif.) at 37° C. with 5% CO2 in air atmosphere) are trypsinized and co-cultured into a 384-well plate with DMEM medium supplemented with 2% FBS, and treated with different concentrations of a compound of the invention. After 24 hours, the firefly luciferase activities are assayed with the Bright-Glo™ Luciferase Assay System (Promega, Madison, Wis.). The IC50 is measured when the effect of the compound reduces the luminescence signal by 50%.
This example provides another method that is useful for evaluating test compounds for inhibition of Wnt signaling.
Human embryonic kidney 293 cells (obtained from American Type Culture Collection, ATCC, Manassas, Va.) are cultured in DMEM medium (Gibco/Invitrogen, Carlsbad, Calif.) supplemented with 10% FBS (Gibco/Invitrogen, Carlsbad, Calif.), 50 unit/mL penicillin and 50 μg/mL of streptomycin (Gibco/Invitrogen, Carlsbad, Calif.) at 37° C. with 5% CO2 in air atmosphere. 293 cells in a 10 cm dish are co-transfected with 8 μg of STF-reporter plasmid containing a luciferase gene driven by Wnt-responsive elements and 2 μg of pcDNA3.1-Neo (Gibco/Invitrogen, Carlsbad, Calif.) with 30 μL of FuGENE6 (Roche Diagnostics, Indianapolis, Ind.) following the manufacturer's protocol. Stable cell lines (293 Wnt-Luc) were selected with 400 μg/mL of G418 (Gibco/Invitrogen, Carlsbad, Calif.). The 293 Wnt-Luc cells and L-cell Wnt3a cells (obtained from American Type Culture Collection, ATCC, Manassas, Va.) are trypsinized and co-cultured into a 384-well plate with DMEM medium supplemented with 2% FBS, and treated with different concentrations of a compound of the invention. After 24 hours, the firefly luciferase activities are assayed with the Bright-Glo™ Luciferase Assay System (Promega, Madison, Wis.). The IC50 is measured when the effect of the compound reduces the luminescence signal by 50%.

[1] = luciferase signal reduced by 50%

| IC50 [1] [nM] | IC50 (Table 2) [nM] | Structure (SMILES) |
| --- | --- | --- |
| 2.4 | – | O=C(NCc1ccc(N2CCS(=O)(=O)CC2)nc1)c1ccc(-c2cccc(F)c2)nc1 [compound 4, N-((6-(1,1-dioxidothiomorpholino)pyridin-3-yl)methyl)-6-(3-fluorophenyl)nicotinamide] |
| 0.01 | – | Cc1cc(-c2ccc(CNC(=O)c3ccc(-c4cncnc4)cc3)cc2F)ccn1 [compound 15, N-(3-fluoro-4-(2-methylpyridin-4-yl)benzyl)-4-(pyrimidin-5-yl)benzamide] |
| 43 | – | Cc1cc(-c2ccc(CNC(=O)c3ccc(-c4cccc(N(C)C)c4)cn3)cn2)ccn1 [compound 29, 5-[3-(dimethylamino)phenyl]-N-{[6-(2-methylpyridin-4-yl)pyridin-3-yl]methyl}pyridine-2-carboxamide] |
| 0.8 | – | O=C(NCc1ccc(-c2ccnc(F)c2)nc1)c1ccc(-c2cnccn2)cc1 [compound 24, N-((2′-fluoro-[2,4′-bipyridin]-5-yl)methyl)-4-(pyrazin-2-yl)benzamide] |
| 12.5 | – | Cc1cc(-c2ccc(CNC(=O)c3ccn(-c4cccc(F)c4)c(=O)c3)cn2)ccn1 [compound 89, 1-(3-Fluorophenyl)-N-((2′-methyl-[2,4′-bipyridin]-5-yl)methyl)-2-oxo-1,2-dihydropyridine-4-carboxamide] |
| 1.9 | – | O=C(NCc1ccc(-c2ccnc(C(F)(F)F)c2)nc1)c1ccc(-c2ccc(N3CCCC3=O)nc2)cn1 [compound 72, 6′-(2-Oxopyrrolidin-1-yl)-N-((2′-(trifluoromethyl)-[2,4′-bipyridin]-5-yl)methyl)-[3,3′-bipyridine]-6-carboxamide] |
| 6.9 | – | Cc1cc(-c2ncc(CNC(=O)c3ccc(-c4ncccc4C)cn3)cc2F)ccn1 [compound 75, N-{[5-fluoro-6-(2-methylpyridin-4-yl)pyridin-3-yl]methyl}-5-(3-methylpyridin-2-yl)pyridine-2-carboxamide] |
| 88 | – | O=C(NCc1ccc(N2CCS(=O)(=O)CC2)nc1)c1ccc(-c2cnccn2)nc1 [compound 69, N-((6-(1,1-dioxidothiomorpholino)pyridin-3-yl)methyl)-6-(pyrazin-2-yl)nicotinamide] |
| – | 1100 | Cc1cc(C(=O)NCc2cnc(-c3ccnc(C(F)(F)F)c3)c(C)c2)ncc1-c1cccc(F)c1C [compound 99] |
| 0.5 | – | Cc1cn(-c2ccc(CNC(=O)c3ccc(-c4ccccc4)cc3)cc2)cn1 [compound 92, N-(4-(4-methyl-1H-imidazol-1-yl)benzyl)biphenyl-4-carboxamide] |
| 0.22 | – | O=C(NCc1cnc(-c2ccnc(C(F)(F)F)c2)c(F)c1)c1ccc(-c2cnccn2)cn1 [compound 85, N-({5-fluoro-6-[2-(trifluoromethyl)pyridin-4-yl]pyridin-3-yl}methyl)-5-(pyrazin-2-yl)pyridine-2-carboxamide] |
| 38 | – | O=C(NCc1ccc(N2CCS(=O)(=O)CC2)nc1)c1ccc(-c2cnccn2)cn1 [compound 68, N-((6-(1,1-dioxidothiomorpholino)pyridin-3-yl)methyl)-5-(pyrazin-2-yl)picolinamide] |
| 0.7 | – | O=C(NCc1ccc(-c2ccnc(C(F)(F)F)c2)nc1)c1ccc(-c2cnccn2)cc1 [compound 32, 4-(pyrazin-2-yl)-N-({6-[2-(trifluoromethyl)pyridin-4-yl]pyridin-3-yl}methyl)benzamide] |
| 16 | – | Cc1cc(-c2cnccn2)cnc1C(=O)NCc1ccc(-c2ccnc(C(F)(F)F)c2)nc1 [compound 87, 3-methyl-5-(pyrazin-2-yl)-N-({6-[2-(trifluoromethyl)pyridin-4-yl]pyridin-3-yl}methyl)pyridine-2-carboxamide] |
| 2.5 | – | Cc1cc(-c2ncc(CNC(=O)c3ccc(-c4cnccn4)cn3)cc2C)ccn1 [compound 63, N-((2′,3-dimethyl-2,4′-bipyridin-5-yl)methyl)-5-(pyrazin-2-yl)picolinamide] |
| 13 | – | Cc1cc(C(=O)NCc2cnc(-c3ccnc(C(F)(F)F)c3)c(C)c2)ccc1-c1cnccn1 [compound 78, 3-methyl-N-({5-methyl-6-[2-(trifluoromethyl)pyridin-4-yl]pyridin-3-yl}methyl)-4-(pyrazin-2-yl)benzamide] |
